# Read-outs that look alike come from different tables or passages of the source.
# How the values were obtained:
# [1] = target: human recombinant 5-HT2C receptor (Homo sapiens (Human), UniProt P28335); test: biochemical; assay type: binding
# Procedure: Test Example 2: 5-HT2C Receptor Binding Inhibition Test
# (Each experimental condition)
# Cell membrane: 0.5 μg of Jump-In HEK cell membrane (expressing human recombinant 5-HT2C receptor) per well
# Assay buffer: Tris-HCl 50 mmol/L (pH 7.4) containing NaCl 120 mmol/L, MgCl2·6H2O 1 mmol/L, KCl 5 mmol/L, 0.1% BSA and CaCl2) 2 mmol/L
# Radioactive ligand: [^3H]-Mesulergine with a final concentration of 1 nmol/L
# (§1) Non-specific ligand: Serotonin HCl with a final concentration of 500 μmol/L
# (§2) The Kd value was calculated when the lot of cell membrane was changed. […] The radioactive ligand solution was serially diluted from 16 nM at a 2-fold ratio and the count was confirmed with a liquid scintillator. […] After that, filtration was performed with Cell harvester (PerkinElmer). The radioactive ligand solution was dispensed into an empty well of the GF/B UniFilter plate at 10 μL/well. […] The GF/B UniFilter plate was allowed to stand overnight at room temperature. […] The Saturation curve was drawn from the measured value, and the Kd value was calculated from the slope of the Scatchard Plot.
# (§3) (Binding Test of the Compound According to the Present Invention)
# (§4) After that, filtration was performed with Cell harvester (PerkinElmer).
# [2] = target: human recombinant 5-HT2A receptor (Homo sapiens (Human), UniProt P28223); test: biochemical; assay type: binding
# Procedure: Test Example 1: 5-HT2A Receptor Binding Inhibition Test
# (Each Experimental Condition)
# Cell membrane: 15 μg of Jump-In HEK cell membrane (expressing human recombinant 5-HT2A receptor) per well
# Assay buffer: Tris-HCl 50 mmol/L (pH 7.4) containing NaCl 120 mmol/L, MgCl2·6H2O 1 mmol/L, KCl 5 mmol/L, 0.1% BSA and CaCl2 2 mmol/L
# Radioactive ligand: [^3H]-Ketanserin with a final concentration of 3 nmol/L
# as §1, §2, §3, §4
# [3] = human serotonin 5-HT2C receptor binding, [3H]-Mesulergine, read-out: h-5-HT2C Ki
# [4] = [3H]-Ketanserin 3 nmol/L, Jump-In HEK cell membrane, class symbols, read-out: h-5-HT2A Ki
# [5] = [3H]-Mesulergine 1 nmol/L, Jump-In HEK cell membrane, read-out: human serotonin 5-HT2C receptor binding activity, Ki
# [6] = [3H]-Ketanserin 3 nmol/L, Jump-In HEK cell membrane, read-out: human serotonin 5-HT2A receptor binding activity, Ki
# human recombinant 5-HT2C receptor, sequence (P28335 whole entry, looked up): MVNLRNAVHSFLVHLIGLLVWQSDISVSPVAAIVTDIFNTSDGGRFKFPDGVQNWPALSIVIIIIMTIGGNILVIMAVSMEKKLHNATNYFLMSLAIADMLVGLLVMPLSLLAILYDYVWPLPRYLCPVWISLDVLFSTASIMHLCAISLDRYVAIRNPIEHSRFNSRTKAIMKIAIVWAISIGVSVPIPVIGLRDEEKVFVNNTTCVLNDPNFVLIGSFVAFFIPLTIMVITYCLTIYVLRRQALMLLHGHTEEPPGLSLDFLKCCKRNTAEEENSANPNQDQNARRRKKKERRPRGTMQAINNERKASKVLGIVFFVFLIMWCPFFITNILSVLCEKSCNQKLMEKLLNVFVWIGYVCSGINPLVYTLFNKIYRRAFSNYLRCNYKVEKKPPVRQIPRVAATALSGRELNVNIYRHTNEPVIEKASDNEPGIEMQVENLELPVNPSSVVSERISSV
smiles,measurement,setting,value
CC(C)COc1ccc(CNC(=O)N(Cc2ncccc2F)[C@@H]2CCN(C)C[C@@H]2F)cc1 (racemic) [Compound I-069],Ki,[1]; [3],> 100 nM
same,Ki,[2]; [4],10 to 100 nM
CC(C)COc1ccc(CNC(=O)N(Cc2ncccc2F)[C@@H]2CCNC[C@@H]2F)cc1 (racemic) [Compound I-073],Ki,[1]; [3],> 100 nM
same,Ki,[2]; [4],10 to 100 nM
CC(C)COc1ccc(CNC(=O)N(Cc2ccc(F)cn2)[C@H]2CCN(C)C[C@@H]2O)cc1 (racemic) [Compound I-088],Ki,[1]; [5],134 nM
same,Ki,[2]; [6],25.7 nM
CC(C)COc1ccc(CNC(=O)N(Cc2ccn(C)n2)C2CCNCC23CC3)cc1 (racemic) [Compound I-090],Ki,[1]; [3],< 10 nM
same,Ki,[2]; [4],< 10 nM
CC(C)COc1ccc(CNC(=O)N(Cc2ccc(F)cn2)C2CCNCC2(F)F)cc1 (racemic) [Compound I-091],Ki,[1]; [3],< 10 nM
same,Ki,[2]; [4],< 10 nM
CC(C)COc1ccc(CNC(=O)N(Cc2ccn(C)c2)[C@@H]2CCNC[C@@H]2F)cc1 (racemic) [Compound I-093],Ki,[1]; [3],< 10 nM
same,Ki,[2]; [4],< 10 nM
Cc1cc(CN(C(=O)NCc2ccc(OCC(C)C)cc2)C2CCN(C)CC23CC3)nn1C (racemic) [Compound I-094],Ki,[1]; [3],< 10 nM
same,Ki,[2]; [4],< 10 nM
COc1ccc(CNC(=O)N(Cc2ccc(F)cn2)C2CCN(C)CC23CC3)cc1 (racemic) [Compound I-099],Ki,[1],< 10 nM
same,Ki,[2],< 10 nM
Cc1ccc(CNC(=O)N(Cc2ccc(F)cn2)C2CCN(C)CC23CC3)cc1 (racemic) [Compound I-100],Ki,[1]; [3],10 to 100 nM
same,Ki,[2]; [4],< 10 nM
Cc1ccc(CNC(=O)N(Cc2ccc(F)cn2)C2CCNCC23CC3)cc1 (racemic) [Compound I-101],Ki,[1]; [3],10 to 100 nM
same,Ki,[2]; [4],< 10 nM
COc1ccc(CNC(=O)N(Cc2cc(C)n(C)n2)C2CCN(C)CC23CC3)cc1 (racemic) [Compound I-104],Ki,[1]; [3],< 10 nM
same,Ki,[2]; [4],< 10 nM
Cc1ccc(CNC(=O)N(Cc2cc(C)n(C)n2)C2CCN(C)CC23CC3)cc1 (racemic) [Compound I-105],Ki,[1]; [3],< 10 nM
same,Ki,[2]; [4],< 10 nM
CCCOc1ccc(CNC(=O)N(Cc2ccn(C)n2)C2CCNCC23CC3)cc1 (racemic) [Compound I-107],Ki,[1]; [3],10 to 100 nM
same,Ki,[2]; [4],< 10 nM
CC(C)COc1ccc(CNC(=O)N(Cc2ccn(C)c2)[C@@H]2CCN(C)C[C@@H]2F)cc1 (racemic) [Compound I-108],Ki,[1]; [3],< 10 nM
same,Ki,[2]; [4],< 10 nM
CCCOc1ccc(CNC(=O)N(Cc2cc(C)n(C)n2)C2CCN(C)CC23CC3)cc1 (racemic) [Compound I-109],Ki,[1]; [3],< 10 nM
same,Ki,[2]; [4],< 10 nM
CN1CCC(N(Cc2ccn(C)n2)C(=O)NCc2ccc(OCC3CC3)cc2)C2(CC2)C1 (racemic) [Compound I-110],Ki,[1]; [3],< 10 nM
same,Ki,[2]; [4],< 10 nM
CN1CCC(N(Cc2ccn(C)n2)C(=O)NCc2ccc(OC(F)F)cc2)C2(CC2)C1 (racemic) [Compound I-111],Ki,[1]; [3],< 10 nM
same,Ki,[2]; [4],< 10 nM
CC(C)COc1ccc(CNC(=O)N(Cc2ccc(F)cn2)C2CCN(C)C3(CC3)C2)cc1 (racemic) [Compound I-136],Ki,[1]; [5],148 nM
same,Ki,[2]; [6],8.02 nM
CC(C)COc1ccc(CNC(=O)N(Cc2ccc(Cl)cn2)C2CCN(C)CC2)cc1 [Compound I-009],Ki,[1]; [5],7.92 nM
same,Ki,[2]; [6],0.291 nM
CC(C)COc1ccc(CNC(=O)N(Cc2ccn(C)n2)C2CCN(C)CC2)cc1 [Compound I-021],Ki,[1]; [5],50.7 nM
same,Ki,[2]; [6],0.858 nM
CC(C)COc1ccc(CNC(=O)N(Cc2cc3ccccc3cn2)C2CCN(C)CC2)cc1 [Compound I-037],Ki,[1]; [5],28.2 nM
same,Ki,[2]; [6],0.654 nM
CC(C)COc1ccc(COC(=O)N(Cc2ccc(F)cn2)C2CCN(C)CC2)cc1 [Compound I-042],Ki,[1]; [5],2.31 nM
same,Ki,[2]; [6],1.15 nM
COc1ccc(CNC(=O)N(Cc2ccc(F)cn2)C2CCN(C)CC2)cc1 [Compound I-043],Ki,[1]; [5],55.7 nM
same,Ki,[2]; [6],2.52 nM
CC(C)COc1ccc(CC(=O)N(Cc2ccc(F)cn2)C2CCN(C)CC2)cc1 [Compound I-068],Ki,[1]; [5],49.9 nM
same,Ki,[2]; [6],6.52 nM
CC(C)COc1ccc(CNC(=O)N(Cc2ccc(F)c3cccnc23)C2CCN(C)CC2)cc1 [Compound I-070],Ki,[1]; [3],10 to 100 nM
same,Ki,[2]; [4],< 10 nM
CC(C)COc1ccc(CNC(=O)N(Cc2ccc(F)c3ccoc23)C2CCN(C)CC2)cc1 [Compound I-071],Ki,[1]; [5],60.7 nM
same,Ki,[2]; [6],13.3 nM
CC(C)COc1ccc(CNC(=O)N(Cc2cc3c(cn2)OCCO3)C2CCN(C)CC2)cc1 [Compound I-072],Ki,[1]; [5],617 nM
same,Ki,[2]; [6],219 nM
CC(C)COc1ccc(CNC(=O)N(Cc2cn(C)c3cccnc23)C2CCN(C)CC2)cc1 [Compound I-074],Ki,[1]; [3],10 to 100 nM
same,Ki,[2]; [4],10 to 100 nM
CN1CCC(N(Cc2ccc(F)cn2)C(=O)NCc2cccc(O)c2)CC1 [Compound I-075],Ki,[1]; [5],1310 nM
same,Ki,[2]; [6],130 nM
CN1CCC(N(Cc2ccc(F)cn2)C(=O)NCc2ccccc2O)CC1 [Compound I-076],Ki,[1]; [5],263 nM
same,Ki,[2]; [6],62 nM
CC(C)COc1ccc(CNC(=O)N(Cc2ncc(O)cc2F)C2CCN(C)CC2)cc1 [Compound I-077],Ki,[1]; [3],> 100 nM
same,Ki,[2]; [4],10 to 100 nM
Cc1cnc(CN(C(=O)NCc2ccc(OCC(C)C)cc2)C2CCN(C)CC2)cn1 [Compound I-078],Ki,[1]; [3],> 100 nM
same,Ki,[2]; [4],10 to 100 nM
CC(C)COc1ccc(CNC(=O)N(Cc2cn(C)c3ccccc23)C2CCN(C)CC2)cc1 [Compound I-079],Ki,[1]; [3],> 100 nM
same,Ki,[2]; [4],> 100 nM
CC(C)COc1ccc(CNC(=O)N(Cc2ncc(F)cc2O)C2CCN(C)CC2)cc1 [Compound I-080],Ki,[1]; [3],10 to 100 nM
same,Ki,[2]; [4],10 to 100 nM
CC(C)COc1ccc(CNC(=O)N(Cc2ccc(F)c3cc[nH]c23)C2CCN(C)CC2)cc1 [Compound I-081],Ki,[1]; [3],> 100 nM
same,Ki,[2]; [4],> 100 nM
CN1CCC(N(Cc2ccc(F)cn2)C(=O)NCc2ccc(Br)cc2)CC1 [Compound I-082],Ki,[1]; [5],28.8 nM
same,Ki,[2]; [6],3.74 nM
C=Cc1ccc(CNC(=O)N(Cc2ccc(F)cn2)C2CCN(C)CC2)cc1 [Compound I-083],Ki,[1]; [3],10 to 100 nM
same,Ki,[2]; [4],< 10 nM
CN1CCC(N(Cc2ccc(F)cn2)C(=O)NCc2ccc(Cl)cc2)CC1 [Compound I-084],Ki,[1]; [5],65.2 nM
same,Ki,[2]; [6],5.61 nM
CC(C)COc1ccc(CNC(=O)N(Cc2ccc(F)cn2)[C@@H]2CCN(C)C[C@@H]2F)cc1 [Compound I-085],Ki,[1]; [5],96.2 nM
same,Ki,[2]; [6],23.8 nM
CC(C)COc1ccc(CNC(=O)N(Cc2ccc(F)cn2)C2CCN(C)C(CO)C2)cc1 (stereo not shown) [Compound I-089],Ki,[1]; [3],10 to 100 nM
same,Ki,[2]; [4],< 10 nM
CN1CCC(N(Cc2ccc(F)cn2)C(=O)NCc2ccc(OCC(C)(F)F)cc2)CC1 [Compound I-092],Ki,[1]; [3],< 10 nM
same,Ki,[2]; [4],< 10 nM
CN1CCC(N(Cc2ccc(F)cn2)C(=O)NCc2ccc(OCC(F)(F)F)cc2)CC1 [Compound I-095],Ki,[1]; [3],< 10 nM
same,Ki,[2]; [4],< 10 nM
Cc1cc(CN(C(=O)NCc2ccc(OCC(C)C)cc2)C2CCN(C)CC2)nn1C [Compound I-096],Ki,[1]; [3],10 to 100 nM
same,Ki,[2]; [4],< 10 nM
C[C@H](F)COc1ccc(CNC(=O)N(Cc2ccc(F)cn2)C2CCN(C)CC2)cc1 [Compound I-097],Ki,[1]; [3],10 to 100 nM
same,Ki,[2]; [4],< 10 nM
C[C@@H](F)COc1ccc(CNC(=O)N(Cc2ccc(F)cn2)C2CCN(C)CC2)cc1 [Compound I-098],Ki,[1]; [3],10 to 100 nM
same,Ki,[2]; [4],< 10 nM
CC(C)COc1ccc(CNC(=O)N(Cc2ccc(F)cn2)[C@H]2CCN(C)C[C@H]2F)cc1 [Compound I-103],Ki,[1]; [3],< 10 nM
same,Ki,[2]; [4],< 10 nM
COc1ccc(COC(=O)N(Cc2ccn(C)c2)C2CCN(C)CC2)cc1 [Compound I-106],Ki,[1]; [3],< 10 nM
same,Ki,[2]; [4],< 10 nM
CC(C)CNc1ccc(CNC(=O)N(Cc2ccc(F)cn2)C2CCN(C)CC2)cc1 [Compound I-112],Ki,[1]; [3],< 10 nM
same,Ki,[2]; [4],< 10 nM
CN1CCC(N(Cc2ccc(F)cn2)C(=O)NCc2ccc(OC3CC3)cc2)CC1 [Compound I-113],Ki,[1]; [3],10 to 100 nM
same,Ki,[2]; [4],< 10 nM
CC(C)COc1ccc(CNC(=O)N(Cc2ccc(F)cn2)[C@H]2CCNC[C@H]2F)cc1 [Compound I-115],Ki,[1]; [3],< 10 nM
same,Ki,[2]; [4],< 10 nM
CCc1ccc(CNC(=O)N(Cc2ccc(F)cn2)C2CCN(C)CC2)cc1 [Compound I-116],Ki,[1]; [5],12.2 nM
same,Ki,[2]; [6],1.45 nM
CN1CCC(N(Cc2ccc(F)cn2)C(=O)NCc2ccc(OCC(F)(F)C(F)F)cc2)CC1 [Compound I-117],Ki,[1]; [3],< 10 nM
same,Ki,[2]; [4],< 10 nM
CC(C)COc1ccc(CNC(=O)N(Cc2ccn(C(F)F)n2)C2CCN(C)CC2)cc1 [Compound I-118],Ki,[1]; [3],10 to 100 nM
same,Ki,[2]; [4],< 10 nM
CCCOc1ccc(CNC(=O)N(Cc2ccc(F)cn2)[C@H]2CCNC[C@H]2F)cc1 [Compound I-119],Ki,[1]; [3],< 10 nM
same,Ki,[2]; [4],< 10 nM
Cc1ccc(CNC(=O)N(Cc2ccc(F)cn2)[C@H]2CCN(C)CC23CC3)cc1 [Compound I-120],Ki,[1]; [3],< 10 nM
same,Ki,[2]; [4],< 10 nM
CN1CCC(N(Cc2ccc(F)cn2)C(=O)NCc2ccc(N(C)C)cc2)CC1 [Compound I-121],Ki,[1]; [3],> 100 nM
same,Ki,[2]; [4],10 to 100 nM

# Source: US12527775B2 (priority 2020, dated 2026)
